# Data as given in patent US20080044390A1, “Methods and compositions for the treatment of neurodegenerative disorders” (priority 2006, published 2008).
# Where two headings read alike, the source gives them in different places. *1 amine or outer side, *2 acyl side, *3 side chain or, on linkers, in order; H or OH if unused. Where a SMILES comes first, the peptide text is derived from it. [ ]: non-standard residue; d: D form. The star is where a group is joined. hPhe = N[CH](CCc1ccccc1)C(=O)O; Morpholide = C1CN(*)CCO1; CO = O=C([*:1])[*:2]; CH2F = FC*
# Columns and labels:
# PC12/HttN90Q103 cells [1] = assay: ATPlite assay, rescue of HttN90Q103-induced cell death; assay type: cell-based, rat
# Excerpt: (§1) In this stable PC12 line (PC12/HttN90Q103), transcription of the Htt transgene is driven by an ecdysone-regulated promoter such that the expression of HttN90Q103 can be turned on or off by the addition or removal of the non-steroidal ecdysone analog tebufenozide (teb).
# (§2) Using the engineered PC12/HttN90Q103 cell line together with Perkin Elmer's ATPlite™ assay kit or CellTiter-Blue™ assay, a high throughput assay to screen small molecules for their ability to prevent mutant Htt exon 1-induced cell death was developed and optimized.
# (§3) The following formulas were used to calculate mutant Htt-induced cytotoxicity and test compound rescue: % killing=[(un-induced−induced-DMSO treated)/un-induced]×100 % rescue=[(drug treated−induced-DMSO treated)/(un-induced−induced-DMSO treated)]×100
# For single-agent ranking, the assay was performed in 384-well plates to obtain duplicate dose response curves in 12-step dilutions with a dosing ratio f=2 over 3 orders of magnitude. […]
# (§4) Day 1—Add Compounds 4 hours post-induction • 1) Remove compound plates from dessicator. • 2) Using the PlateMate, prepare dilution plate with 100 μL per well of the complete cell medium at room temperature in clear untreated 384-well plates. • 3) Using the MiniTrak, make compound dilution plates: 1 μL from each well of stock plates into 100 μL of media in the dilution plate for a 1:100 dilution (10× stock in media). • 4) Using the MiniTrak, add 4.5 μL of the diluted stock to each well of cells in assay plates. • 5) Make positive control solution: dilute 20 mM stock of BOC-D-FMK in media for a 10× stock. • 6) Manually add 4.5 μL positive control to C1-N1. • 7) Incubate plates at 37° C. for three days. • (for ranking combinations, steps 5 and 6 are omitted as there is positive control on the compound plates)
# Day 4—Perform ATPlite™ Assay • 1) Take plates out of the incubator. • 2) Using the PlateMate, add 40 μL of ATPlite™ 1-step solution (Perkin Elmer) to each well of the assay plates. • 3) Wait ten minutes to allow plates to dark-adapt. • 4) Read luminescence intensity in Wallac plate reader using […]
# PC12/HttN90Q103 cells [2] = assay: CellTiter-Blue assay, rescue of HttN90Q103-induced cell death; assay type: cell-based, rat; conditions: CellTiter-Blue, single agent
# Excerpt: as §1, §2, §3
# For single-agent ranking, the assay was performed in 384-well plates to obtain duplicate dose response curves in 12-step dilutions with a dosing ratio f=2 over 3 orders of magnitude.
# The uncertainty of each fitted parameter was estimated from the range over which the change in reduced chi-squared was less than one, or less than minimum reduced chi-squared if that minimum exceeded one, to allow for underestimated σI errors.
# as §4
# Day 4—CellTiter-Blue™ assay • 1) Make solution of 5% CellTiter-Blue™ in Q103 media. • 2) Using the Multidrop, add 40 μL of 5% CellTiter-Blue™ solution to each well of the assay plates. • 3) Incubate plates with CellTiter-Blue™ at 37° C.
# [3] = ATPlite, single agent, 250 nM tebufenozide induction
# [4] = ATPlite, single agent, sigmoidal fit of 12-step dose response, read-out: EC50
# [5] = Rattus norvegicus, PC-12, ATPlite, single agent, 250 nM tebufenozide induction, read-out: Max Effect (% rescue)
# [6] = Rattus norvegicus, PC-12, ATPlite, single agent, sigmoidal fit of 12-step dose response, read-out: EC50
# [7] = Rattus norvegicus, PC-12, read-out: Max Effect (% rescue)
Compound,Emax (PC12/HttN90Q103 cells [1]; [5]) [%],EC50 (PC12/HttN90Q103 cells [1]; [6]) [µM],other results
N[C@@H]1C[C@H]1c1ccccc1 (racemic) [Tranylcypromine],–,–,Max Effect (% rescue) (PC12/HttN90Q103 cells [1]; [3]): 16%; EC50 (PC12/HttN90Q103 cells [1]; [4]): 2.2 µM
CC1CNCCN1S(=O)(=O)c1cccc2cnccc12 (centres unmarked) [1-(5-isoquinolinesulfonyl)-2-methylpiperazine],28,15.5,–
"OC[C@H]1O[C@@H](n2cnc3cc(Cl)c(Cl)cc32)[C@H](O)[C@@H]1O [5,6-dichloro-1-β-D-ribofuranosylbenzimidazole]",–,–,"EC50 (PC12/HttN90Q103 cells [1]; Rattus norvegicus, PC-12): 5.1 µM; Emax (PC12/HttN90Q103 cells [1]; [7]): 26%"
CN1c2c(nc(N)[nH]c2=O)NCC1CNc1ccc(C(=O)N[C@@H](CCC(=O)O)C(=O)O)cc1 (some centres unmarked) [5-methyl-5-6-7-8-tetrahydropteroylglutamic-acid],–,–,"Max Effect (% rescue) (PC12/HttN90Q103 cells [2]; 250 nM tebufenozide induction): 34%; EC50 (PC12/HttN90Q103 cells [2]; sigmoidal fit of 12-step dose response, read-out: EC50): 9.3 µM"
"Nc1ncnc2c1c(I)cn2[C@@H]1C[C@H](N)[C@@H](O)[C@H]1O [Agent A-134974, N^7-[(1′R,2′S,3′R,4′S)-2′,3′-dihydroxy-4′-aminocyclopentyl]-4-amino-5-iodopyrrolopyrimidine]",–,–,Max Effect (% rescue) (PC12/HttN90Q103 cells [1]; [3]): 22%; EC50 (PC12/HttN90Q103 cells [1]; [4]): 13.3 µM
O=C1Cc2c([nH]c3ccc([N+](=O)[O-])cc23)-c2ccccc2N1 [Alsterpaullone],64,1.8,–
CC(C)c1ccc2oc3nc(N)c(C(=O)O)cc3c(=O)c2c1 [Amlexanox],–,–,"EC50 (PC12/HttN90Q103 cells [1]; Rattus norvegicus, PC-12): 5.7 µM; Emax (PC12/HttN90Q103 cells [1]; [7]): 18%"
CCN(CC)Cc1cc(Nc2ccnc3cc(Cl)ccc23)ccc1O [Amodiaquine],62,12.3,–
C[C@]12CCC(=O)C[C@@H]1CC[C@@H]1[C@@H]2CC[C@]2(C)[C@@H](O)CC[C@@H]12 [Androstanolone],–,–,"EC50 (PC12/HttN90Q103 cells [1]; Rattus norvegicus, PC-12): 8 µM; Emax (PC12/HttN90Q103 cells [1]; [7]): 15%"
"O=C(CF)C(CCc1ccccc1)NC(=O)C(Cc1ccccc1)NC(=O)N1CCOCC1 (centres unmarked) [BML-248, N-morpholineurea-phenylalanyl-homophenylalanylfluoromethyl ketone] ({Morpholide-CO}-Phe-[hPhe]-CH2F; configuration not given here)",–,–,Max Effect (% rescue) (PC12/HttN90Q103 cells [1]; [3]): 24%; EC50 (PC12/HttN90Q103 cells [1]; [4]): 7.1 µM
O=C(NO)c1ccccc1 [Benzohydroxamic acid],15,6.9,–
CCCC(=O)Nc1ncnc2c1ncn2[C@@H]1O[C@@H]2COP(=O)(O)O[C@H]2[C@H]1OC(=O)CCC [Bucladesine],18,19.6,–
COC(=O)CC(NC(=O)OC(C)(C)C)C(=O)CF [Caspase inhibitor III (BOC-D-fmk)],–,–,"% rescue (PC12/HttN90Q103 cells [1]; 20 μM, positive control, 72 hours following tebufenozide induction): More than 50%; Max Effect (% rescue) (PC12/HttN90Q103 cells [1]; [3]): 119%; EC50 (PC12/HttN90Q103 cells [1]; [4]): 3.9 µM"
CC1=C(O)C(=O)C=C2C1=CC=C1[C@@]2(C)CC[C@@]2(C)[C@@H]3C[C@](C)(C(=O)O)CC[C@]3(C)CC[C@]12C [Celastrol],–,–,"EC50 (PC12/HttN90Q103 cells [1]; Rattus norvegicus, PC-12): 0.3 µM; Emax (PC12/HttN90Q103 cells [1]; [7]): 19%"
CCN(CC)CCCC(C)Nc1ccnc2cc(Cl)ccc12 (centres unmarked) [Chloroquine],–,–,"EC50 (PC12/HttN90Q103 cells [1]; Rattus norvegicus, PC-12): 9.7 µM"
N=C(N)c1ccc(/N=N/Nc2ccc(C(=N)N)cc2)cc1 [Diminazene],35,5.6,–
CCCC(CCC)C(=O)O [Divalproex],19,15.2,–
O=S(=O)(c1cccc2cnccc12)N1CCCNCC1 [Fasudil],26,9.9,–
O=c1c(O)c(-c2ccc(O)c(O)c2)oc2cc(O)ccc12 [Fisetin],52,12.4,–
C=C[C@@]1(C)CC(=O)[C@]2(O)[C@@]3(C)[C@@H](O)CCC(C)(C)[C@@H]3[C@H](O)[C@H](OC(C)=O)[C@@]2(C)O1 [Forskolin],18,0.2,–
CCN(CCO)CCCC(C)Nc1ccnc2cc(Cl)ccc12 (centres unmarked) [Hydroxychloroquine],29,5.2,–
NC(=O)NO [Hydroxyurea],22,7.5,–
O=C(Nc1cccc(C2=NCCN2)c1)Nc1cccc(C2=NCCN2)c1 [Imidocarb],24,15.9,–
O=C1Nc2ccccc2/C1=C1/Nc2ccccc2/C1=N\O [Indirubin-3′-monooxime],–,–,Max Effect (% rescue) (PC12/HttN90Q103 cells [1]; [3]): 30%; EC50 (PC12/HttN90Q103 cells [1]; [4]): 2.4 µM

Compound,Emax (PC12/HttN90Q103 cells [1]; [5]) [%],EC50 (PC12/HttN90Q103 cells [1]; [6]) [µM],other results
O=C(/C=C/c1ccc(O)cc1)c1ccc(O)cc1O [Isoliquiritigenin],27,12.5,–
O=c1c(O)c(-c2ccc(O)cc2)oc2cc(O)cc(O)c12 [Kaempferol],15,12.2,–
O=C1Cc2c([nH]c3ccc(Br)cc23)-c2ccccc2N1 [Kenpaullone],87,4.7,–
CC(C=NNC(=N)N)=NNC(=N)N [Methylglyoxal bis(guanylhydrazone)],79,7.7,–
CCCCC1C(=O)NN(c2ccccc2)C1=O (centres unmarked) [Mofebutazone],19,5.6,–
CC[C@@H](C(=O)O)[C@@H]1O[C@@H]([C@@H](C)[C@H](O)[C@H](C)C(=O)[C@H](CC)[C@H]2O[C@]3(C=C[C@@H](O)[C@]4(CC[C@@](C)([C@H]5CC[C@](O)(CC)[C@H](C)O5)O4)O3)[C@H](C)C[C@@H]2C)[C@@H](C)C[C@@H]1C [Narasin],15,0.1,–
CO[C@@H]1C[C@@H](C[C@H]2CC[C@H](C)[C@H]([C@@H](C)C(=O)O)O2)O[C@]2(O[C@](C)([C@H]3CC[C@@](C)([C@@H]4O[C@@H]([C@H]5O[C@@](O)(CO)[C@H](C)C[C@@H]5C)C[C@@H]4C)O3)C[C@H]2C)[C@@H]1C [Nigericin],36,–,–
O=C1Nc2ccc3ncsc3c2/C1=C/c1cnc[nH]1 [PKR inhibitor],–,–,Max Effect (% rescue) (PC12/HttN90Q103 cells [1]; [3]): 124%; EC50 (PC12/HttN90Q103 cells [1]; [4]): 1.2 µM
Cc1ncc(CSSCc2cnc(C)c(O)c2CO)c(CO)c1O [Pyritinol],17,15.1,–
CC(=O)C(=O)O [Pyruvate],5,1.2,–
CC(C)[C@H](NC(=O)c1ccc2ccccc2n1)C(=O)N[C@@H](CC(=O)O)C(=O)COc1c(F)cccc1F [Q-VD-OPH],–,–,Max Effect (% rescue) (PC12/HttN90Q103 cells [1]; [3]): 72%; EC50 (PC12/HttN90Q103 cells [1]; [4]): 0.6 µM
O=c1c(O)c(-c2ccc(O)c(O)c2)oc2cc(O)cc(O)c12 [Quercetin],23,16.4,–
CN(CCOc1ccc(CC2SC(=O)NC2=O)cc1)c1ccccn1 (centres unmarked) [Rosiglitazone],13,8.5,–
"COc1ccc2c(c1)/C(=C/c1cnc[nH]1)C(=O)N2 [SU9516, 3-[1-(3H-imidazol-4-yl)-meth-(Z)-ylidene]-5-methoxy-1,3-dihydro-indol-2-one]",66,3.3,–
CC[C@@H](C(=O)[C@@H](C)[C@@H](O)[C@H](C)[C@@H]1O[C@@H]([C@@H](CC)C(=O)O)CC[C@@H]1C)[C@H]1O[C@]2(C=C[C@@H](O)[C@]3(CC[C@@](C)([C@H]4CC[C@](O)(CC)[C@H](C)O4)O3)O2)[C@H](C)C[C@@H]1C [Salinomycin],–,–,"EC50 (PC12/HttN90Q103 cells [1]; Rattus norvegicus, PC-12): 0.2 µM; Emax (PC12/HttN90Q103 cells [1]; [7]): 24%"
CC(=O)S[C@@H]1CC2=CC(=O)CC[C@]2(C)[C@H]2CC[C@@]3(C)[C@@H](CC[C@@]34CCC(=O)O4)[C@H]12 [Spironolactone],22,9.1,–
"c1ccc(CN(CCN(Cc2ccccn2)Cc2ccccn2)Cc2ccccn2)nc1 [TPEN, N,N,N′,N′-tetrakis(2-pyridylmethyl)-ethylenediamine]",15,3,–
Nc1c2c(nc3ccccc13)CCCC2 [Tacrine],15,39.6,–
NC1CCN(c2nc3c(cc2F)c(=O)c(C(=O)O)cn3-c2ccc(F)cc2F)C1 (centres unmarked) [Tosufloxacin],20,9.9,–
N#C/C(=C\c1ccc(O)c(O)c1)C(N)=O [Tyrphostin 46],–,–,Max Effect (% rescue) (PC12/HttN90Q103 cells [1]; [3]): 23%; EC50 (PC12/HttN90Q103 cells [1]; [4]): 23.5 µM
CC(=O)ON=C1C(=O)N(Cc2cc(Cl)ccc2Cl)c2ccc(Cl)cc21 [UCH-L1 inhibitor],–,–,Max Effect (% rescue) (PC12/HttN90Q103 cells [1]; [3]): 21%; EC50 (PC12/HttN90Q103 cells [1]; [4]): 0.5 µM
O=S(=O)([O-])[O-].[O]=[V+2] [Vanadyl],–,–,Max Effect (% rescue) (PC12/HttN90Q103 cells [1]; [3]): 19%; EC50 (PC12/HttN90Q103 cells [1]; [4]): 0.6 µM
CN1CCN(C(=O)OC2c3nccnc3C(=O)N2c2ccc(Cl)cn2)CC1 (centres unmarked) [Zopiclone],–,–,"EC50 (PC12/HttN90Q103 cells [1]; Rattus norvegicus, PC-12): 6.7 µM; Emax (PC12/HttN90Q103 cells [1]; [7]): 25%"
Maduramicin NH4,–,–,Max Effect (% rescue) (PC12/HttN90Q103 cells [1]; [3]): 19%; EC50 (PC12/HttN90Q103 cells [1]; [4]): 0.04 µM
